Laboratory results published in patent US20090054245A1, “Method for detecting gastric cancer by detecting VLDLR gene” (FUJIFILM Corporation, priority 2006, published 2009).
“Also recorded” adds a separate entry of the source.

Assays:
[1] = system: human VLDLR gene expression in SNU601 and MKN74 cells; assay: RT-PCR analysis of human VLDLR expression in gastric cancer cells treated with 5-aza-dC and/or TSA; format: cell-based
From the text: An empty pGL3 basic vector (mock) and constructs each comprising a different one of 3 sequences (fragments 1 to 3) upstream or in the proximity of VLDLR exon 1 were separately introduced into SNU601 and MKN74 cells. Luciferase activity was normalized relative to that of an internal control. Data shown in FIG. 3B contains mean values±SEMs of triplicate experiments of 3 different constructs. […] Arrows indicate fragments that were digested with restriction enzymes in a specific manner at sites recognized as methylated CpGs. […] With the use of two fragments (BS-1 and BS-2), all of the 71 CpG sites were subjected to sequencing. Squares represent CpG sites (white square: unmethylated site; and black square: methylated site).
The human VLDLR gene expression was examined in the cases in which CpG islands of the human VLDLR gene in gastric cancer cells were demethylated. Specifically, gastric cancer cells were treated in the presence of 5-aza-dC (serving as a transmethylase inhibitor) at different concentrations for 5 days, followed by determination of the capacity of inducing human VLDLR mRNA. […] RT-PCR was carried out with the use of two types of specific primers used for amplification of human VLDLR gene, followed by electrophoresis. GAPDH was used as an internal control. […]

[2] = system: CpG islands of the human VLDLR gene in gastric cancer cells; assay: Demethylation of VLDLR CpG islands by culturing gastric cancer cells with 5-aza-dC; format: cell-based; details: gastric cancer cells cultured in the presence of 5-aza-dC
From the text: In addition, the extent of methylation of the CpG islands strongly correlated with inhibition of the expression of the human VLDLR gene in some gastric cancer cells.

| SMILES | human VLDLR gene expression level in the presence of TSA ([1]; SNU601 and MKN74 cells with densely methylated VLDLR CpG islands, TSA (10 ng/ml in FIG. 3A legend)) | demethylation of CpG islands of the human VLDLR gene [2] | human VLDLR mRNA expression after 5-aza-dC treatment ([1]; SNU601 and MKN74 cells (no VLDLR expression, no homozygous deletion), 5-aza-dC for 5 days (10 μM in FIG. 3A legend)) |
| --- | --- | --- | --- |
| CC(/C=C/C(=O)NO)=C\[C@@H](C)C(=O)c1ccc(N(C)C)cc1 [TSA, trichostatin A] | equivalent to that obtained in the absence of TSA |  |  |
| Nc1ncn([C@H]2C[C@H](O)[C@@H](CO)O2)c(=O)n1 [5-aza-dC, 5-azadeoxycytidine] |  | possible to demetylate such CpG islands | possible to recover the expression level of the human VLDLR gene; also recorded: found to have the capacity of inducing human VLDLR mRNA |
